Assay results published in publication PMC7494392 (Journal of Pain Research, 2020).

Target: TRPV1 (Rattus norvegicus, UniProt O35433)
Assay: Fura-2 calcium imaging in rat DRG neurons
Assay type: cell-based

TRPV1, sequence (O35433 whole entry): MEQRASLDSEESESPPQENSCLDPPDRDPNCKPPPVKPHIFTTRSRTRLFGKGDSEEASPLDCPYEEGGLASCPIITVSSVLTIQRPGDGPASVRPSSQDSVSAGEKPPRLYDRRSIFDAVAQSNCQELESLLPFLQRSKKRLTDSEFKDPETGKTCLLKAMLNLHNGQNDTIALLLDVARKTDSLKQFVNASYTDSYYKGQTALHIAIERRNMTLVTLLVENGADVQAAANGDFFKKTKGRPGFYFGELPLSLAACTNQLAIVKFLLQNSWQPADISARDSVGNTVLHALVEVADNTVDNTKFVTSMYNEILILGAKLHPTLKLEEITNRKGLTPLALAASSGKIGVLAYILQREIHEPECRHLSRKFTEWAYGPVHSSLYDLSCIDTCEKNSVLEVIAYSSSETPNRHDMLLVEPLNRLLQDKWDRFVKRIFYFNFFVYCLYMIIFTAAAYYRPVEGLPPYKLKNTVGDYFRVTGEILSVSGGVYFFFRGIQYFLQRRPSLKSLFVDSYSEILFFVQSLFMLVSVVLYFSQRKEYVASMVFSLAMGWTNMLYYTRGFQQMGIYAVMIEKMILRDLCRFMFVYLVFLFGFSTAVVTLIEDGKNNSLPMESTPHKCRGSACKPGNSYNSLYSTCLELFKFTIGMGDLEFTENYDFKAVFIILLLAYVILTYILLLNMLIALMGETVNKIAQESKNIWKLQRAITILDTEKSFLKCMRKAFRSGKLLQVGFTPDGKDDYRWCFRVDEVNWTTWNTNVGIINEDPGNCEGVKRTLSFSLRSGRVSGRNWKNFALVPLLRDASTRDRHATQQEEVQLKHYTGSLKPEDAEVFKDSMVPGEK

C=C(C)[C@@H]1CCC(C)=C[C@H]1c1c(O)cc(CCCCC)cc1O [CBD, Cannabidiol]
EC50: 1 to 10 µM
